Reference: patent US20250099402A1, “COMPOSITIONS OF ASPIRIN AND KETAMINE” (Vitalis Analgesics LLC, priority 2022, published 2025)
Like-named read-outs stand apart in the source and are kept apart here.

Key:
[1] = tested on: acute musculoskeletal pain; settings: data collected from similar trials, same protocol, scales, center and team, agents and doses per Table 5, FIG. 1, cited from earlier work
[2] = Compatibility of ketamine and aspirin with spray coating solvents; settings: alcohol solvents for ketamine, aqueous solutions for aspirin
[3] = cited from earlier work
[4] = Ketamine pharmacokinetics and onset of action by route (background); settings: ketamine given concurrently through the GI
[5] = tested on: acute pain due to fracture; settings: intravenous, public domain data; cited from earlier work
[6] = in vivo; cited from earlier work
[7] = cited from earlier work; remark: listed apart in the source

CN1CC[C@]23c4c5ccc(O)c4O[C@H]2[C@@H](O)C=C[C@H]3[C@H]1C5 [IV morphine, Morphine]
reduction of acute musculoskeletal pain, comparator agents [1]: 5.1 points

CNC1(c2ccccc2Cl)CCCCC1=O (centres unmarked) [ketamine]
stability in spray coating solvent [2]: reacted with alcohol solvents leading to impurities
elimination half-life ([3]; in vivo): 2 to 3 h
bioavailability, intramuscular injection ([3]; intramuscular): about 93%
bioavailability, IV ([3]; intravenous): about 100%
time to maximal concentrations, orally ([3]; oral): 30 min
bioavailability, oral route ([3]; oral, listed as oral ketamine): 18-20%
reduction of acute musculoskeletal pain, comparator agents ([1]; listed as intranasal (nebulized) ketamine): about 4 points
serum peak concentration later than directly absorbed ketamine [4]: 15 to 20 min
time of peak pain reduction effect [5]: about 5 mins

NC1(c2ccccc2Cl)CCCCC1=O (centres unmarked) [norketamine]
potency as an anesthetic relative to ketamine [6]: one-third to one-fifth
plasma levels relative to ketamine ([3]; following oral administration of ketamine): three times higher

CC(C)Cc1ccc(C(C)C(=O)O)cc1 (centres unmarked) [oral ibuprofen, Ibuprofen]
reduction of acute musculoskeletal pain, comparator agents [1]: 2 points

CN1CC[C@]23c4c5ccc(O)c4O[C@H]2[C@@H](O)C=C[C@H]3[C@H]1C5.O=S(=O)(O)O [oral morphine, Morphine Sulfate]
reduction of acute musculoskeletal pain, comparator agents [1]: about 4 points

N[C@@H]1c2cccnc2[C@H](OC(=O)N2CCC(n3c(=O)[nH]c4ncccc43)CC2)CC[C@H]1c1cccc(F)c1F [rimegepant]
absolute oral bioavailability ([7]; in vivo, po): approximately 64%
eliminated in unchanged form ([7]; in vivo): ~77 % of the dose
time of maximum concentration ([7]; oral administration of NURTEC Orally Disintegrating Tablet): 1.5 h
